Among the data in ChEMBL document CHEMBL4261496, “Targeting quinolone- and aminocoumarin-resistant bacteria with new gyramide analogs that inhibit DNA gyrase” (Medchemcomm, 2017) are MIC, Activity and inhibition values, retold here.

The subject of assay [1] is Escherichia coli. Briefly: Antibacterial activity against Escherichia coli JW5503 after 16 to 18 hrs by broth microdilution method. It is filed as functional. (In broth dilution the organism is exposed to a series of concentrations in liquid medium.)
Assay [2] has as its system Escherichia coli. Briefly: Antibacterial activity against Escherichia coli HB101 after 16 to 18 hrs by broth microdilution method. It counts as functional.
Assay [3] relates to Escherichia coli. Briefly: Antibacterial activity against Escherichia coli HB101 after 16 to 18 hrs in presence of PAbetaN by broth microdilution method. It counts as functional.
Assay [4] deals with Escherichia coli. Description: Antibacterial activity against novobiocin-resistant Escherichia coli CC5 harboring GyrB Arg136His mutant after 16 to 18 hrs in presence of PAbetaN by broth microdilution method. It is filed as functional.
Assay [5] concerns Escherichia coli. Description: Antibacterial activity against novobiocin-resistant Escherichia coli CC7 harboring GyrB Arg136Ser mutant after 16 to 18 hrs in presence of PAbetaN by broth microdilution method. It is filed as functional.
The subject of assay [6] is Escherichia coli. Description: Antibacterial activity against novobiocin-resistant Escherichia coli LE316 harboring GyrB Arg136Val mutant after 16 to 18 hrs in presence of PAbetaN by broth microdilution method. It counts as functional.
The subject of assay [7] is Escherichia coli. Description: Antibacterial activity against Escherichia coli JW5503 transfected with empty vector in presence of IPTG induction after 16 hrs by broth microdilution method. It counts as functional. To be noted: JW5503, 16 h.
In assay [8] the test system is Escherichia coli. Briefly: Antibacterial activity against Escherichia coli JW5503 transfected with empty vector in absence of IPTG induction after 16 hrs by broth microdilution method. It counts as functional. To be noted: JW5503, 16 h.
The subject of assay [9] is Escherichia coli. Description: Antibacterial activity against Escherichia coli JW5503 overexpressing gyrB in presence of IPTG induction after 16 hrs by broth microdilution method. To be noted: JW5503, 16 h. It is filed as functional.
For assay [10], the system named is Escherichia coli. Description: Antibacterial activity against Escherichia coli JW5503 overexpressing gyrA/gyrB in presence of IPTG induction after 16 hrs by broth microdilution method. It is filed as functional. To be noted: JW5503, 16 h.
The subject of assay [11] is Escherichia coli. Briefly: Antibacterial activity against Escherichia coli JW5503 overexpressing gyrB at 51 ug/ml in presence of IPTG induction after 16 hrs by broth microdilution method. It counts as functional, organism-based.
In assay [12] the test system is Escherichia coli. Briefly: Antibacterial activity against ciprofloxacin-resistant Escherichia coli JW5503 harboring GyrA Ser83Leu mutant after 16 to 18 hrs by broth microdilution method. It is filed as functional.
The target in assay [13] is DNA gyrase (Escherichia coli) (UniProt P0AES6+P0AES4). Description: Inhibition of Escherichia coli DNA gyrase ATPase activity up to 100 uM using DNA as substrate after 60 mins. It counts as protein-complex assay.
Assay [14] deals with Escherichia coli. Briefly: Antibacterial activity against Escherichia coli JW5503 overexpressing gyrA in absence of IPTG induction after 16 hrs by broth microdilution method. It counts as functional. To be noted: JW5503, 16 h.
In assay [15] the test system is Escherichia coli. Briefly: Antibacterial activity against Escherichia coli JW5503 overexpressing gyrB in absence of IPTG induction after 16 hrs by broth microdilution method. It counts as functional. To be noted: JW5503, 16 h.
Assay [16] has as its system Escherichia coli. Description: Antibacterial activity against Escherichia coli JW5503 overexpressing gyrA/gyrB in absence of IPTG induction after 16 hrs by broth microdilution method. It counts as functional. To be noted: JW5503, 16 h.
The test system of assay [17] is Escherichia coli. Description: Antibacterial activity against Escherichia coli JW5503 simultaneously overexpressing gyrA/gyrB in presence of IPTG induction after 16 hrs by broth microdilution method. It counts as functional, organism-based.
In assay [18] the test system is Escherichia coli. Description: Antibacterial activity against Escherichia coli transfected with empty vector.

≈ marks a conversion by molar mass, not a printed value. Calls of active or inactive are those of the source. The calls are words filed in the database; no cut-off is given here. Where only a bound is given, the exact number is not on record here.

The MIC is the lowest concentration that inhibits growth of the organism. For `CO[C@@H]1[C@@H](OC(N)=O)[C@@H](O)[C@H](Oc2ccc3c(O)c(NC(=O)c4ccc(O)c(CC=C(C)C)c4)c(=O)oc3c2C)OC1(C)C` [NOVOBIOCIN], the MIC was 0.8 µg/mL (≈ 1.31 µM) in [1]; over 100 µg/mL in assay [2]; 3.2 µg/mL in [3]; 102 µg/mL in assay [4]; 6.4 µg/mL in assay [5]; 12.8 µg/mL in assay [6]. Also, the MIC was 0.4 µg/mL in [7], 0.4 µg/mL (≈ 0.653 µM) in assay [8], 6.3 µg/mL in [9] and 3.2 µg/mL in assay [10]. In addition, the outcome in [11] was inactive.
As for `O=C(O)c1cn(C2CC2)c2cc(N3CCNCC3)c(F)cc2c1=O` [CIPROFLOXACIN], the MIC in [12] came out at 0.0064 µg/mL (≈ 0.0193 µM); in assay [8], 0.0021 µg/mL (≈ 0.00634 µM); in assay [14], 0.0021 µg/mL (≈ 0.00634 µM); in assay [9], 0.0021 µg/mL; in assay [15], 0.0021 µg/mL (≈ 0.00634 µM); in assay [16], 0.0021 µg/mL (≈ 0.00634 µM). Further, the MIC in assay [18] was determined as 0.009 µg/mL (≈ 0.0272 µM). Also, the inhibition entry in assay [13] is “inactive”. The outcome in assay [17] was Active.
